Data set [1] has as its system Ax 15 Corynebacterium jeikeium. As to the kind of experiment: MIC microtiter plate test, axilla bacteria. It is filed as cell-based. The following applies: for MIC: Corynebacterium jeikeium. From the text:
(§1) The different bacterial strains had been isolated from the human axilla by current microbiological practice. They were taxonomically identified by cell morphology, gram-reaction and biochemical tests included in the Api coryne test kit (BioMerieux, France). Strain Staphylococcus epidermidis Ax25 was identified by fatty acid methyl ester analysis (FAME; German type strain collection DSMZ, Germany). The strains were maintained on Tryptic soy broth plates, this standard medium being amended with 5 g per Litre of Tween 80 and 1 g of Soybean lecithin. Plates were incubated at 36° C for a period 48 hours. The bacteria were then swabbed from the plates and suspended in 4 ml of Müller-Hinton broth amended with 100 mg of Tween80 per Litre (MH-Tween) and incubated again at 36° C for 16 hours. Following incubation the bacterial suspensions were diluted in MH-Tween to obtain a final cell density of 10^6 colony forming units per ml. For each fragrance material four microtiter plates were used in the example, each microtiter plate having 8 rows, A-H, and 12 columns, 1-12. To each column a diluted suspension of a different test organism was distributed, 100 µl per well. 1% stock solutions of the fragrance materials were then prepared in MH-Tween broth. The fragrance material was dispersed by ultrasonication into the aqueous medium to obtain a homogenous emulsion. 100 µl per well of this emulsion was then added to the first row of the microtiter plates already containing the target organisms. Serial dilution series were then prepared starting at row A and continuing until row G, each time removing 100 µl from a well and transferring it to the next well. In this way fragrance concentrations of 0.5%, 0.25%, 0.125%, 0.0625%, 0.03125%, 0.0156% and 0.0078% were tested for their antibacterial efficacy. The reference compound Triclosan was tested at 16 fold lower concentrations. The plates were covered with plastic films and incubated for 24 h at 36° C with shaking at 250 rpm. The turbidity developing in the microtiter plates was then examined after 24 h to determine microbial growth. The minimal concentration of fragrance inhibiting the growth of an organism by at least 80% was determined as the minimal inhibitory concentration (MIC).
(§2) Ax 25 was identified as Staphylococcus epidermidis by FAME analysis. Identification with the Api Coryne test kit yielded the following species assignments for the remainder of the strains: Ax 26 Corynebacterium sp.; Ax 3 Corynebacterium bovis; Ax 7 Corynebacterium group G; Ax 10 Corynebacterium jeikeium; Ax 11 Corynebacterium jeikeium; Ax 12 Corynebacterium jeikeium; Ax 15 Corynebacterium jeikeium; Ax 20 Corynebacterium striatum/amycolatum; Ax 19 Corynebacterium jeikeium. The strains were isolated from the axilla of 8 human volunteers. Based on biochemical tests and colony morphology all strains were distinct from each other, even the several strains all belonging to Corynebacterium jeikeium.

Data set [2] relates to Ax 7 Corynebacterium group G. As to the kind of experiment: MIC microtiter plate test, axilla bacteria. The settings on record: for MIC: Corynebacterium. Type of data set: cell-based.
Text: as §1, §2

Data set [3] relates to Staphylococcus epidermidis Ax25. As to the kind of experiment: MIC microtiter plate test, axilla bacteria. Type of data set: cell-based. The following applies: for MIC: Staphylococcus epidermidis, AX25.
Text: as §1, §2

The next data set can be described thus: Vapour pressure. It is filed as physicochemical. From the text:
Odoriferous substances are by definition volatile compounds which evaporate from the skin and therefore loose their deodorising effect. Furthermore small water-soluble fragrance compounds can get dissolved in sweat and are thus rapidly diluted under conditions of high sweat secretion which further reduces the duration of the deodorising effect. Therefore a low water solubility indicated by a high LogP value and a low volatility indicated by low vapour pressure are desired for odoriferous substances which are used for their antibacterial activity.

The next data set concerns Corynebacteria. As to the kind of experiment: MIC microtiter plate test, Corynebacteria. Type of data set: cell-based. From the text:
The different bacterial strains had been isolated from the human axilla by current microbiological practice. They were taxonomically identified by cell morphology, gram-reaction and biochemical tests included in the Api coryne test kit (BioMerieux, France). Strain Staphylococcus epidermidis Ax25 was identified by fatty acid methyl ester analysis (FAME; German type strain collection DSMZ, Germany). The strains were maintained on Tryptic soy broth plates, this standard medium being amended with 5 g per Litre of Tween 80 and 1 g of Soybean lecithin. Plates were incubated at 36° C for a period 48 hours. The bacteria were then swabbed from the plates and suspended in 4 ml of Müller-Hinton broth amended with 100 mg of Tween80 per Litre (MH-Tween) and incubated again at 36° C for 16 hours. Following incubation the bacterial suspensions were diluted in MH-Tween to obtain a final cell density of 10^6 colony forming units per ml. For each fragrance material four microtiter plates were used in the example, each microtiter plate having 8 rows, A-H, and 12 columns, 1-12. […]
Since sandela is known to be a mixture of different reaction products, commercial sandela was subjected to a distillation process. […] The different fractions were evaluated for their antimicrobial activity (Table 6) with the method described in example 1. […]

The test system of data set [4] is Ax 10 Corynebacterium jeikeium. As to the kind of experiment: MIC microtiter plate test, axilla bacteria. The settings on record: Ax10, growth inhibition by at least 80%, 24 h at 36° C. Type of data set: cell-based.
Text: as §1, §2

Data set [5] deals with Ax 12 Corynebacterium jeikeium. As to the kind of experiment: MIC microtiter plate test, axilla bacteria. It is filed as cell-based. The settings on record: Ax12, growth inhibition by at least 80%, 24 h at 36° C.
Text: as §1, §2

In data set [6] the test system is Ax 11 Corynebacterium jeikeium. As to the kind of experiment: MIC microtiter plate test, axilla bacteria. The settings on record: Ax11, growth inhibition by at least 80%, 24 h at 36° C. It is filed as cell-based.
Text: as §1, §2

Data set [7] deals with Ax 20 Corynebacterium striatum/amycolatum. As to the kind of experiment: MIC microtiter plate test, axilla bacteria. Type of data set: cell-based. The following applies: Ax20, growth inhibition by at least 80%, 24 h at 36° C.
Text: as §1, §2

Data set [8] has as its system Ax 3 Corynebacterium bovis. As to the kind of experiment: MIC microtiter plate test, axilla bacteria. It is filed as cell-based. The following applies: Ax3, growth inhibition by at least 80%, 24 h at 36° C.
Text: as §1, §2

The subject of data set [9] is Ax 26 Corynebacterium sp. As to the kind of experiment: MIC microtiter plate test, axilla bacteria. Type of data set: cell-based. The settings on record: for MIC: Corynebacterium.
Text: as §1, §2

Where [10] appears, read: Table 7, Corynebact. Ax15, 24 hours.
Setting [11] is: Table 8, Corynebact. Ax15, 24 hours.
Where [12] appears, read: Table 7, Corynebact. Ax7, 24 hours.
The mark [13] stands for this setting: Table 8, Corynebact. Ax7, 24 hours.
[14] abbreviates: Table 7, S. epidermidis, 24 hours.
Where [15] appears, read: Table 8, S. epidermidis, 24 hours.
The mark [16] stands for this setting: Ax15, growth inhibition by at least 80%, 24 h at 36° C.
The mark [17] stands for this setting: Ax7, growth inhibition by at least 80%, 24 h at 36° C.
Where [18] appears, read: Ax 25, growth inhibition by at least 80%, 24 h at 36° C.
The mark [19] stands for this setting: Corynebacterium jeikeium, read-out: Minimal inhibitory concentration (MIC).

≈ marks a conversion by molar mass, not a printed value. Where two headings read alike, the source gives them in different places.

In the case of `COC1CC(C2CC3CC2C(C)C3(C)C)CCC1O` (single isomer, unassigned; peak a) [Peak A], the “Bacteriostatic activity (concentration needed for at least 80% reduction in growth)” value in data set [1] (setting [10]) is given as 0.0048 percent (w/v); in data set [1] (setting [11]), 0.0048 percent (w/v); in [2] (setting [12]), 0.0048 percent (w/v); in [2] (setting [13]), 0.0048 percent (w/v); in data set [3] (setting [14]), 0.0040 percent (w/v); in data set [3] (setting [15]) it was 0.0040 percent (w/v).

`COC1CC(C2CC3CC2C(C)C3(C)C)CCC1O` (single isomer, unassigned; peak b) [Peak B]: the “Bacteriostatic activity (concentration needed for at least 80% reduction in growth)” value was 0.0028 percent (w/v) in data set [1] (setting [10]); 0.0028 percent (w/v) in data set [1] (setting [11]); 0.0028 percent (w/v) in data set [2] (setting [12]); 0.0028 percent (w/v) in [2] (setting [13]); 0.0023 percent (w/v) in data set [3] (setting [14]); 0.0023 percent (w/v) in data set [3] (setting [15]).

As for `CC1C2CC(CC2C2CCCCC2O)C1(C)C` (stereo not shown) [2-(5,5,6-trimethylbicyclo[2.2.1]hept-2-yl)-cyclohexanol], the vapour pressure result in the data set “Vapour pressure” was “about 2.2 µg/L”.

`COC1CC(C2CC3CC2C(C)C3(C)C)CCC1O` (stereo not shown) [2-methoxy-4-(5,5,6-trimethylbicyclo[2.2.1]hept-2-yl)cyclohexan-1-ol]: the “activity against Corynebacteria” value in the data set on Corynebacteria is reported as “highest activity”.

Turning to `COC1CCC(C2CC3CC2C(C)C3(C)C)CC1O` (stereo not shown) [2-methoxy-5-(5,5,6-trimethyl-bicyclo[2.2.1]hept-2-yl)cyclohexan-1-ol], the “activity against Corynebacteria” value in the data set with Corynebacteria is given as “highest activity”.

Regarding `CC1C2CC(CC2C2CCCC(O)C2)C1(C)C` (stereo not shown) [3-(5,5,6-trimethylbicyclo[2.2.1]hept-2-yl)-cyclohexanol], the vapour pressure result in the data set “Vapour pressure” is listed as “about 2.2 µg/L”.

Turning to `CC1C2CC(CC2C2CCC(O)CC2)C1(C)C` (stereo not shown) [4-(5,5,6-trimethylbicyclo[2.2.1]hept-2-yl)-cyclohexanol], in the data set “Vapour pressure”, the vapour pressure result was “about 2.2 µg/L”.

Consider `CC1=CCC(/C=C\C(C)C(C)O)C1(C)C` (stereo not shown) [Ebanol], for which the “Minimal inhibitory concentration (MIC)” value in data set [4] is recorded as 0.2500 % weight/ volume; in [1] (setting [16]) it was 0.2500 % weight/ volume; in data set [5], 0.2500 % weight/ volume; in [2] (setting [17]), 0.1250 % weight/ volume; in data set [3] (setting [18]), 0.1250 % weight/ volume; in data set [6], 0.2500 % weight/ volume. The “Minimal inhibitory concentration (MIC)” value in data set [7] and in data set [8] was 0.1250 % weight/ volume each time.

Regarding `C=CCc1ccc(O)c(OC)c1` [Eugenol], in “Vapour pressure”, the vapour pressure was found to be 109 µg/L.

The compound `CC(C)=CCCC(C)=CCCC(C)=CCO` [Farnesol, 3,7,11-trimethyl-2,6,10-dodecatrien-1-ol] gave a vapour pressure in the data set “Vapour pressure” of 1.35 µg/L. The MIC in [4] (setting [19]) was determined as 78 µg/mL (≈ 351 µM); in data set [1] (Ax15, growth inhibition by at least 80%, 24 h at 36° C, read-out: Minimal inhibitory concentration (MIC)) it was 156 µg/mL (≈ 702 µM); in data set [1] (Table 7, Corynebact. Ax15, 24 hours, read-out: Bacteriostatic activity (concentration needed for at least 80% reduction in growth)), 156 µg/mL (≈ 702 µM); in data set [5] (setting [19]), 137 µg/mL (≈ 616 µM); in data set [9] (Ax26, growth inhibition by at least 80%, 24 h at 36° C, read-out: Minimal inhibitory concentration (MIC)) it was 78 µg/mL (≈ 351 µM); in data set [9] (Table 7, Corynebact. Ax26, 24 hours, read-out: Bacteriostatic activity (concentration needed for at least 80% reduction in growth)) it was 78 µg/mL (≈ 351 µM). The MIC came to 137 µg/mL (≈ 616 µM) in [2] (Ax7, growth inhibition by at least 80%, 24 h at 36° C, read-out: Minimal inhibitory concentration (MIC)); 137 µg/mL (≈ 616 µM) in data set [2] (Table 7, Corynebact. Ax7, 24 hours, read-out: Bacteriostatic activity (concentration needed for at least 80% reduction in growth)); 156 µg/mL (≈ 702 µM) in data set [3] (Ax 25, growth inhibition by at least 80%, 24 h at 36° C, read-out: Minimal inhibitory concentration (MIC)); 156 µg/mL (≈ 702 µM) in [3] (Table 7, S. epidermidis, 24 hours, read-out: Bacteriostatic activity (concentration needed for at least 80% reduction in growth)); 195 µg/mL (≈ 877 µM) in data set [6] (setting [19]); 137 µg/mL (≈ 616 µM) in data set [7] (Corynebacterium striatum, read-out: Minimal inhibitory concentration (MIC)). The MIC in data set [8] (Corynebacterium bovis, read-out: Minimal inhibitory concentration (MIC)) is 156 µg/mL (≈ 702 µM). Moreover, the “Bacteriostatic activity (concentration needed for at least 80% reduction in growth)” value is recorded as 0.0156 percent (w/v) in [1] (setting [11]); 0.0078 percent (w/v) in [9] (Table 8, Corynebact. Ax26, 24 hours); 0.0137 percent (w/v) in data set [2] (setting [13]); 0.0156 percent (w/v) in data set [3] (setting [15]).

Consider `CCC(=CCC1CC=C(C)C1(C)C)CO` (stereo not shown) [Radjanol], for which the “Minimal inhibitory concentration (MIC)” value in data set [1] (setting [16]) is reported as 0.125. % weight/ volume; in [2] (setting [17]), 0.0625 % weight/ volume; in [3] (setting [18]), 0.1250 % weight/ volume.

Consider `CC1=CCC(CCC(C)C(C)O)C1(C)C` (stereo not shown) [Sandalore], for which the “Minimal inhibitory concentration (MIC)” value in data set [4] was determined as 0.1250 % weight/ volume; in [1] (setting [16]), 0.2500 % weight/ volume; in data set [5] it was 0.1250 % weight/ volume; in data set [2] (setting [17]) it was 0.1250 % weight/ volume; in data set [3] (setting [18]) it was 0.1250 % weight/ volume; in data set [6] it was 0.1250 % weight/ volume. Also, the “Minimal inhibitory concentration (MIC)” value in [7] and in data set [8] was 0.1250 % weight/ volume throughout.
